From patent publication US20150080462A1, “COMPOSITIONS AND METHODS FOR THE TREATMENT OR PREVENTION OF DISORDERS RELATING TO OXIDATIVE STRESS” (THE JOHNS HOPKINS UNIVERSITY, priority 2005, published 2015)
“Also recorded” adds a separate entry of the source. *1 amine or outer side, *2 acyl side, *3 side chain or, on linkers, in order; H or OH if unused. Where a SMILES comes first, the peptide text is derived from it. Bridges are numbered along the chain shown (N, C = ends). Roman numbers before positions name the chains, in order. [ ]: non-standard residue; d: D form. Actinocin(9to1) = Cc1c2oc3c(C)ccc(C(=O)[*:1])c3nc-2c(C(=O)[*:2])c(N)c1=O; NMeV = CN[C@H](C(=O)O)C(C)C; Sar = CNCC(=O)O

What was measured:
[1] = tested on: mouse cortical neuronal cells; experiment: Glutamate-induced cytotoxicity in primary neurons (MTT); format: cell-based; settings: SnPPIX 5 μM; CHX 10 μM
Protocol: Mouse primary neurons cultured for 14 d were pre-treated for 6 h with EGb 761 (100 μg/ml). […] Neurons were incubated for an additional 18 h, and the MTT assay was used to estimate the cell survival. Experimental conditions were conducted in quadruplicate and repeated four times with different batches of primary cultures.
(§1) Neuronal survival was assessed and quantified with the MTT colorimetric assay. […] The optical density was determined at 570 nm. Cell viability of the vehicle-treated control group was defined as 100%, and MTT optical density in the treated groups was expressed as a percent of control.

[2] = tested on: mouse cortical neuronal cells; experiment: H2O2-induced cytotoxicity in primary neurons (MTT); format: cell-based; settings: SnPPIX 5 μM
Protocol: After 10 d in culture, mouse primary neurons were pre-treated with EGb 761 (10, 50, or 100 μg/ml) for 6 h, and then treated for 18 h with H2O2 (20 μM) or vehicle (control) with or without 5 μM HO inhibitor (SnPPIX, Porphyrin Products, Inc., (Logan, Utah). Cell survival was evaluated by the 3-(4,5-dimethylthiazol-2-yl)-2,5-diphenyl tetrazolium bromide (MTT) colorimetric assay.
as §1

Nrf2 = settings: cortical neurons; t-BuOOH 60 μM, NMDA 100 μM, glutamate 300 μM; up to 360 minutes
caspase-3 = experiment: Caspase-3/7 assay in cortical neurons; format: cell-based, mouse; settings: for caspase-3 activity: cortical neurons, t-BuOOH 60 μM, NMDA 100 μM, glutamate 300 μM
primary cortical neurons [3] = experiment: Neuronal viability by MTT assay (t-BuOOH, NMDA, glutamate with or without t-BHQ); settings: 24 hours
HO-1 = HO-1 protein expression in cortical neurons (Western blot); settings: cortical neurons pretreated 1 h with CHX or ATD, then 100 μg/ml EGb 761
[4] = tested on: NADPH-cytochrome P450 reductase (CP450R); experiment: NADPH-cytochrome P450 reductase protein expression in cortical neurons (Western blot); settings: 8 h
HO-2 = HO-2 protein expression in cortical neurons (Western blot); settings: 8 h
NF-κB = format: cell-based, mouse; settings: nrf2−/− MEFs pretreated 1 h with NAC (10 mM) or GSH-MEE (1 mM), then LPS (0.5 μg/ml) or TNF-α (10 ng/ml) 3 h
Protocol: MEFs (60-80% confluence) were transfected with luciferase reporter genes (pNF-κB-luc or ISRE-Tk-Luc vector) by using Lipofectamine2000 (Invitrogen). The Renilla-luciferase reporter gene (pRL-TK) was co-transfected for normalization. After the treatments, the reporter gene activity was measured using the Dual Luciferase Assay System (Promega). All transfection experiments were carried out in triplicate wells and were repeated separately at least 3 times.

[5] = tested on: OVA challenged Nrf2−/− mice; experiment: BAL fluid inflammatory cell counts in OVA challenged mice pretreated with NAC
Protocol: Mice (n=8) were anesthetized with 0.3 ml of pentobarbital (65 mg/ml) and the trachea was cannulated. […] BAL fluid was collected with 1 ml followed by 2×1 ml of sterile PBS containing 5 mM EDTA, DTT (5 mM) and PMSF (5 mM). The BAL fluid was immediately centrifuged at 1500×g. The total cell count was measured, and cytospin preparation (Shandon Scientific Inc., Cheshire, UK) was performed. Cells were stained with Diff-Quick reagent, and a differential count of 300 cells was performed using standard morphological criteria (Saltini C et al. Am Rev Respir Dis 130:650-658.1984).
Mice (male, 8 weeks old) were sensitized on day 0 by i.p. injection (100 μl/mouse) with 20 μg of ovalbumin complexed with aluminum potassium sulfate. On day 14, mice were sensitized a second time with 100 μg OVA. On days 24, 26 and 28, the mice were anesthetized by i.p. injection of 0.1 ml of a mixture of ketamine (10 mg/ml) and xylazine (1 mg/ml) diluted in sterile PBS and challenged with 200 μg of OVA (in 100 μl sterile PBS) by intratracheal instillation. The control groups received sterile PBS with aluminum potassium sulfate by i.p. route on day 0 and 14, and 0.1 ml of sterile PBS on day 24, 26 and 28. Mice were euthanized at different time points after OVA challenge for BAL, RNA isolation, histopathology, and for AHR measurements.
Nrf2^+/+ and Nrf2^−/− mice (6 mice in each group) were sensitized with OVA by following the procedure as already described. […] Twenty-four hours after challenge, BAL fluids and lung tissues were harvested and analyzed as above. The experiment was repeated two times.

[6] = tested on: OVA challenged Nrf2−/− mice; experiment: Lung histology (H&E) of OVA challenged mice pretreated with NAC; settings: OVA challenged (1st challenge) Nrf2−/− mice, NAC 7 days before challenge
Protocol: Mice (male, 8 weeks old) were sensitized on day 0 by i.p. injection (100 μl/mouse) with 20 μg of ovalbumin complexed with aluminum potassium sulfate. On day 14, mice were sensitized a second time with 100 μg OVA. On days 24, 26 and 28, the mice were anesthetized by i.p. injection of 0.1 ml of a mixture of ketamine (10 mg/ml) and xylazine (1 mg/ml) diluted in sterile PBS and challenged with 200 μg of OVA (in 100 μl sterile PBS) by intratracheal instillation. The control groups received sterile PBS with aluminum potassium sulfate by i.p. route on day 0 and 14, and 0.1 ml of sterile PBS on day 24, 26 and 28. […]
The lungs were inflated with 0.6 ml of buffered formalin (10%), fixed for 24 h at 4° C., prior to histochemical processing. […] The number of PAS positive cells was counted on longitudinal lung sections of the proximal airways. The percent PAS positive cells was determined by counting the mucus positive cells and unstained epithelial cells in the proximal airways under the microscope with a grid at 100× magnification. […] The data are expressed as mean±SEM.
Nrf2^+/+ and Nrf2^−/− mice (6 mice in each group) were sensitized with OVA by following the procedure as already described. […] Twenty-four hours after challenge, BAL fluids and lung tissues were harvested and analyzed as above. […]

nrf2−/− and nrf2+/+ mice = experiment: LPS induced septic shock mortality, NAC pretreatment; format: in vivo; settings: LPS 1.5 mg per mouse
primary cortical neurons [7] = tested on: primary cortical neurons

## C=Cc1c2[n-]c(c1C)/C=c1\[n-]/c(c(C)c1C=C)=C\c1[n-]c(c(CCC(=O)O)c1C)C=c1[n-]/c(c(C)c1CCC(=O)O)=C\2.[Sn+4] [SnPPIX, Tin Protoporphyrin IX]
[1]
  protective effect of EGb 761 against glutamate in presence of inhibitor: prevented the protective effect
[2]
  protective effect of EGb 761 against H2O2 in presence of HO inhibitor: blocked the protective effect

## CN[C@H](CC(=O)O)C(=O)O [NMDA]
Nrf2
  Nrf2 in the cytosolic fraction: no effect
  Nrf2 in the nuclear fraction: no effect
caspase-3
  caspase-3 activity: induced an increase
Primary cortical neurons [3]; t-BuOOH 60 μM, NMDA 100 μM, glutamate 300 μM
  number of viable neurons vs untreated control: significantly decreased

## C[C@@H]1C[C@@H]([C@H](O)CC2CC(=O)NC(=O)C2)C(=O)[C@@H](C)C1 [CHX, cycloheximide]
HO-1
  HO-1 induction by EGb 761 in presence of inhibitor: completely block
[1]
  protective effect of EGb 761 against glutamate in presence of inhibitor: prevented the protective effect

## Cc1c2oc3c(C)ccc(C(=O)N[C@@H]4C(=O)N[C@H](C(C)C)C(=O)N5CCC[C@H]5C(=O)N(C)CC(=O)N(C)[C@@H](C(C)C)C(=O)O[C@@H]4C)c3nc-2c(C(=O)N[C@@H]2C(=O)N[C@H](C(C)C)C(=O)N3CCC[C@H]3C(=O)N(C)CC(=O)N(C)[C@@H](C(C)C)C(=O)O[C@@H]2C)c(N)c1=O [ATD, actinomycin D] (I: T[dV]P[Sar][NMeV] / II: T[dV]P[Sar][NMeV]; ester I:1-I:C, II:1-II:C; linker I:N-II:N via Actinocin(9to1))
HO-1
  HO-1 induction by EGb 761 in presence of inhibitor: completely block

## N[C@@H](CCC(=O)O)C(=O)O [glutamate]
Nrf2
  Nrf2 in the cytosolic fraction: no effect
  Nrf2 in the nuclear fraction: no effect
caspase-3
  caspase-3 activity: induced an increase

## CC(C)(C)OO [t-BuOOH, test-butyl hydroperoxide]
Nrf2
  Nrf2 in the cytosolic fraction: decreased to below the basal level after 30 minutes
  Nrf2 in the nuclear fraction: elevated at 30 min
caspase-3
  caspase-3 activity: induced an increase

## CC(C)(C)[C@]1(O)CC2OC(=O)CC23C(=O)OC2OC(=O)[C@H](O)C231 (some centres unmarked) [bilobalide]
[4]
  NADPH-cytochrome P450 reductase (CP450R) protein expression: do not affect
HO-2
  HO-2 expression level: do not affect

## CCOC(=O)CNC(=O)[C@H](CS)NC(=O)CC[C@H](N)C(=O)O [GSH-monoethyl ester]
NF-κB
  NF-κB mediated reporter activity elicited by LPS or TNF-α: significantly attenuated

## CC(=O)N[C@@H](CS)C(=O)O [NAC, N-acetyl L-cysteine]
[5]; 24 h post 1st OVA challenge, NAC treatment
  other cell types (macrophages, neutrophils, lymphocytes, epithelial cells) in BAL fluid: did not have any significant inhibitory effect
[5]; Nrf2−/− OVA mice, NAC pretreatment 7 days before 1st OVA challenge
  inflammatory cells in the BAL fluid: significantly (*) reduced
[5]; saline-challenged mice treated with NAC vs untreated
  total and differential cell counts in saline-challenged mice: did not differ
[6]
  infiltration of inflammatory cells in the peribronchial and perivascular region: marked reduction; also recorded: significant reduction
nrf2−/− and nrf2+/+ mice; nrf2−/− and nrf2+/+ mice, NAC ip 500 mg/kg daily 4 days, 5 days
  LPS induced mortality (% survival) vs vehicle-pretreated mice: improved survival
nrf2−/− and nrf2+/+ mice; nrf2−/− mice, NAC 500 mg/kg ip daily 4 days, saline-pretreated all died within 56 h
  mice surviving LPS induced septic shock: 40%
nrf2−/− and nrf2+/+ mice; wild-type mice, NAC 500 mg/kg 4 days
  protection against LPS induced septic shock: modest protection

## CC(C)(C)c1cc(O)ccc1O [t-BHQ, tert-butylhydroquinone]
Primary cortical neurons [7]
  neuronal viability, compound alone: no effect
caspase-3; t-BHQ 20 μM
  increase in caspase-3 activity evoked by t-BuOOH, NMDA and glutamate: prevent the increase
caspase-3; t-BHQ alone
  basal levels of caspase-3 activity: no effect
Primary cortical neurons [3]; t-BHQ 20 μM
  decrease in viable neurons caused by t-BuOOH, NMDA or glutamate: abolished
